Structures can show the parent of a compound that is named as a salt.
Test system: EGR1 promoter
Test: EGR1 reporter assay (luciferase) in genomically engineered HeLa cell line
Type: cell-based
Settings: Homo sapiens; EGR1 reporter HeLa cells, luciferase activity after 24 hours with compound
Source text: The compounds of the present invention can be characterized for their effect on expression of egr1 (early growth response protein 1) using an EGR1 reporter cell line.
The HeLa cell line was genetically modified to provide a simple, robust and highly reproducible cell-based assay reporting the activity of an endogenous EGR1 promoter. In brief, a construct encoding EGFP and luciferase proteins, separated by a self-cleaving P2A peptide was inserted, using CRISPR, immediately downstream (3′) to the promoter of endogenous EGR1. Upon treatment with compounds, cells express EGFP and luciferase from EGR1 promoter, which can be readily detected either in live cells using microscopy or cytometry, or through detection of luciferase activity in cell lysates.
To achieve stable genomic integration of an EGR1-promoter dual reporter, two plasmids were generated: one contained the reporter construct (eGFP-P2A-luciferase) flanked by homology arms that direct insertion into genomic DNA, by homologous recombination, of a break in genomic DNA generated by guide RNA targeted cleavage by Cas9 endonuclease. The gRNA expressing plasmid was based on px330 (56), into which a gRNA sequence that targets a break in gDNA close to the start codon of EGR1 was cloned. The left homology arm (encoding part of EGR1 promoter adjacent to its start codon) and right homology arm (encoding […] of start codon of EGR1) were cloned from gDNA using the following primers: […]
The present compounds can be tested, e.g. by using a HeLa cell line carrying an EGR1 reporter construct which allows for expression of luciferase and eGFP (enhanced GFP) controlled by the EGR1 promoter. For this reporter cells are seeded in the wells of a 384 well microtiter plate at a density of 2000 cells per well in 48 μl of DMEM supplemented with 4.5 g/l glucose, 2 mM glutamine and 10% FCS and are incubated for 24 hours at 37° C. with 5% CO2 and 95% humidity. Then, an eleven point 1:3 serial dilution of each test compound, from an initial concentration of 100 μM, is prepared in DMSO and the dilutions are added to the cells in a volume of 2 μl per well. The cells are incubated for a further 24 hours, after which the luciferase activity of each well is determined by addition of 25 μl of luciferase substrate reaction mixture (Britelite™ plus, Perkin Elmer) and measuring the bioluminescence light output (EnVision Xcite plate reader, PerkinElmer).
The compound of example 64 served as a positive control for this EGR1 reporter assay. The compound of example 64 had been identified in an initial high throughput screening campaign.

| Compound | EC50 [µM] |
| --- | --- |
| Cc1cc2occ(CC(=O)Nc3nc(-c4ccc(CN)cc4)cs3)c2cc1C [Example 101, N-[4-[4-(Aminomethyl)phenyl]thiazol-2-yl]-2-(5,6-dimethylbenzofuran-3-yl)acetamide, hydrochloride salt] | 0.01 to 10 |
| CC(=O)NCc1ccc(-c2csc(NC(=O)Cc3coc4cc(C)c(C(C)C)cc34)n2)o1 [Example 1, N-[4-[5-(Acetamidomethyl)-2-furyl]thiazol-2-yl]-2-(5-isopropyl-6-methyl-benzofuran-3-yl)acetamide] | 10 to 100 |
| O=C(CCc1coc2ccccc12)Nc1ncc(C(F)(F)F)s1 [Example 44, 3-(Benzofuran-3-yl)-N-[5-(trifluoromethyl)thiazol-2-yl]propanamide] | 0.01 to 10 |
| Cc1ccc2c(CC(=O)Nc3nc(-c4cccs4)cs3)coc2c1 [Example 27, 2-(6-Methylbenzofuran-3-yl)-N-[4-(2-thienyl)thiazol-2-yl]acetamide] | 0.01 to 10 |
| COc1ccc2nc(NC(=O)Cc3coc4cc(C)ccc34)sc2c1 [Example 41, N-(6-Methoxy-1,3-benzothiazol-2-yl)-2-(6-methylbenzofuran-3-yl)acetamide] | 0.01 to 10 |
| COc1ccc2c(CC(=O)Nc3nc4c(s3)CCC4)coc2c1 [Example 54, N-(5,6-Dihydro-4H-cyclopenta[d]thiazol-2-yl)-2-(6-methoxybenzofuran-3-yl)acetamide] | 0.01 to 10 |
| Cc1cnc(NC(=O)Cc2coc3cc(Cl)ccc23)s1 [Example 15, 2-(6-Chlorobenzofuran-3-yl)-N-(5-methylthiazol-2-yl)acetamide] | 10 to 100 |
| CC(=O)NCc1ccc(-c2csc(NC(=O)Cc3coc4cc5c(cc34)CCC5)n2)o1 [Example 19, N-[4-[5-(Acetamidomethyl)-2-furyl]thiazol-2-yl]-2-(6,7-dihydro-5H-cyclopenta[f]benzofuran-3-yl)acetamide] | 10 to 100 |
| CCc1ccc2c(CC(=O)Nc3nccs3)coc2c1 [Example 20, 2-(6-Ethylbenzofuran-3-yl)-N-thiazol-2-yl-acetamide] | 10 to 100 |
| COc1ccc2c(CC(=O)Nc3nc(-c4ccc(CCC(C)NC(C)=O)cc4)cs3)coc2c1 (centres unmarked) [Example 51, N-[4-[4-(3-Acetamidobutyl)phenyl]thiazol-2-yl]-2-(6-methoxybenzofuran-3-yl)acetamide] | 0.01 to 10 |
| Cc1cnc(NC(=O)Cc2coc3cc4c(cc23)OCO4)s1 [Example 34, 2-Furo[3,2-f][1,3]benzodioxol-7-yl-N-(5-methylthiazol-2-yl)acetamide] | 0.01 to 10 |
| CC(=O)c1csc(NC(=O)Cc2coc3cc(C)ccc23)n1 [Example 24, N-(4-Acetylthiazol-2-yl)-2-(6-methylbenzofuran-3-yl)acetamide] | 0.01 to 10 |
| COCc1cnc(NC(=O)Cc2coc3cc(Cl)ccc23)s1 [Example 56] | 0.01 to 10 |

The next lines start with the values.

| EC50 [µM] | Compound |
| --- | --- |
| 0.01 to 10 | Cc1cccc2c(CC(=O)Nc3ncc(C(F)(F)F)s3)coc12 [Example 72, 2-(7-Methylbenzofuran-3-yl)-N-[5-(trifluoromethyl)thiazol-2-yl]acetamide] |
| 0.01 to 10 | COc1ccc2c(CC(=O)Nc3nc(-c4ccc5c(c4)CCO5)cs3)coc2c1 [Example 74, N-[4-(2,3-Dihydrobenzofuran-5-yl)thiazol-2-yl]-2-(6-methoxybenzofuran-3-yl)acetamide] |
| 0.01 to 10 | COc1ccc2c(CC(=O)Nc3ncc(C(F)(F)F)s3)coc2c1C [Example 91, 2-(6-Methoxy-7-methyl-benzofuran-3-yl)-N-[5-(trifluoromethyl)thiazol-2-yl]acetamide] |
| 0.01 to 10 | Cc1c(Cl)ccc2c(CC(=O)Nc3ncc(C(F)(F)F)s3)coc12 [Example 94, 2-(6-Chloro-7-methyl-benzofuran-3-yl)-N-[5-(trifluoromethyl)thiazol-2-yl]acetamide] |
| 0.01 to 10 | O=C(Cc1coc2cc(Cl)ccc12)Nc1ncc(C(F)(F)F)s1 [Example 60, 2-(6-Chlorobenzofuran-3-yl)-N-[5-(trifluoromethyl)thiazol-2-yl]acetamide] |
| 0.01 to 10 | Cc1ccc2c(CC(=O)Nc3ncc(C#N)s3)coc2c1C [Example 62, N-(5-Cyanothiazol-2-yl)-2-(6,7-dimethylbenzofuran-3-yl)acetamide] |
| 0.01 to 10 | COc1c(C)ccc2c(CC(=O)Nc3ncc(C(F)(F)F)s3)coc12 [Example 97, 2-(7-Methoxy-6-methyl-benzofuran-3-yl)-N-[5-(trifluoromethyl)thiazol-2-yl]acetamide] |
| 0.01 to 10 | COc1ccc2c(CC(=O)N(c3ccc(C(C)=O)cc3)c3nc4ccccc4s3)coc2c1 [Example 68, N-(4-Acetylphenyl)-N-(1,3-benzothiazol-2-yl)-2-(6-methoxybenzofuran-3-yl)acetamide] |
| 0.01 to 10 | Cc1ccc2c(CC(=O)N(c3ccc(SC(F)F)cc3)c3nc4ccccc4s3)coc2c1 [Example 102, N-(1,3-Benzothiazol-2-yl)-N-[4-(difluoromethylsulfanyl)phenyl]-2-(6-methylbenzofuran-3-yl)acetamide] |
| 0.01 to 10 | CCc1cnc(NC(=O)Cc2coc3cc4c(cc23)CCC4)s1 [Example 84, 2-(6,7-Dihydro-5H-cyclopenta[f]benzofuran-3-yl)-N-(5-ethylthiazol-2-yl)acetamide] |
| 0.01 to 10 | COCc1cnc(NC(=O)Cc2coc3c(Cl)c(Cl)ccc23)s1 [Example 93, 2-(6,7-Dichlorobenzofuran-3-yl)-N-[5-(methoxymethyl)thiazol-2-yl]acetamide] |
| 0.01 to 10 | Cc1cnc(NC(=O)Cc2coc3c(Cl)c(C)ccc23)[nH]1 [Example 57, 2-(7-Chloro-6-methyl-benzofuran-3-yl)-N-(5-methyl-1H-imidazol-2-yl)acetamide] |

Test system: patient derived CLL samples
Test: Growth inhibition of cells derived from patients with CLL
Type: cell-based
Settings: 45 of 97 samples; three days incubation, ATPlite
Description: HeLa, A549 and HCT116 cells were grown in high-glucose Dulbecco's Modified Eagle's Medium (DMEM, Sigma)+10% FBS+1% penicillin and streptomycin+1% L-glutamine, at 37° C. with 5% CO2 and 95% humidity. Cytotoxic screening of the ProQinase panel of 100 cell-lines was performed by ProQinase (Freiburg, Germany). Patient derived CLL isolates were prepared and screened as described by Dietrich et al. (S. Dietrich et al., J Clin Invest, 2018, 128(1), 427-445). Cell viability was determined after 48 hours using the ATP-based CellTiter Glo assay (Promega). Luminescence was measured with a Tecan Infinite F200 Microplate Reader (Tecan Group AG) and with an integration time of 0.2 seconds per well.
The response of 97 tumour samples derived from patients with CLL was investigated. All samples tumor cells were obtained from whole blood, subjected to Ficoll-Isopaque density centrifugation. CD19+B and CD3+ T cells were isolated by positive magnetic cell separation (Miltenyi Biotec). Sorted cells were checked for purity by fluorescence-activated cell sorting (FACS) with CD19/CD20 for healthy control samples and CD19/CD20/CD5 for CLL samples (BD Biosciences). Following sorting, all samples with a CD19/CD20/CD5 purity <98% were subjected to additional sorting, and the average final purity of all sorted samples was >99%. CLL samples with >[…] were not subject to purification.
Cells are incubated for three days with an eight-point three-fold titration series of the test compound from an initial concentration of 30 μM (2000 cells per well in a volume of 50 μl). Cellular viability is estimated by the addition of 25 μL of ATPlite (Perkin Elmer) with the resulting luminescence measured using an EnVision Xcite plate reader (Perkin Elmer).
In addition, the growth inhibitory response of a selection of 27 patient derived CLL isolates (S. Dietrich et al., J Clin Invest, 2018, 128(1), 427-445) against the compounds of examples 64 and 85 was evaluated using the procedure as described above.

| Compound | patient samples killed with an EC50 less than 10 μM [%] |
| --- | --- |
| Cc1cccc2c(CC(=O)Nc3ncc(C(F)(F)F)s3)coc12 [Example 72, 2-(7-Methylbenzofuran-3-yl)-N-[5-(trifluoromethyl)thiazol-2-yl]acetamide] | 46 |

Same assay, conditions: 90 of 97 samples; three days incubation, ATPlite

| Compound | patient derived CLL samples with cytotoxic effect [%] |
| --- | --- |
| Cc1cccc2c(CC(=O)Nc3ncc(C(F)(F)F)s3)coc12 [Example 72, 2-(7-Methylbenzofuran-3-yl)-N-[5-(trifluoromethyl)thiazol-2-yl]acetamide] | 93 |

Target: T1, pirin (Homo sapiens, UniProt O00625)
T1 sequence (O00625 1-290): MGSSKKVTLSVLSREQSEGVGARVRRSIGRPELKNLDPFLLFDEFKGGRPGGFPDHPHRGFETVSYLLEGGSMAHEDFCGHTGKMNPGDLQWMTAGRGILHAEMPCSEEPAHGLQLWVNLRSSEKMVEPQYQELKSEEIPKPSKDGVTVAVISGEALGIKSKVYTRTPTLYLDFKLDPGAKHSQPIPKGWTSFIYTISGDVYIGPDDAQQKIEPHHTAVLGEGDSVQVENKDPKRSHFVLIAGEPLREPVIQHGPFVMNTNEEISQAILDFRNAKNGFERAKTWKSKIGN
Test: Surface plasmon resonance on immobilized pirin (Biacore)
Type: binding
Parameters: hexahistidine tag (N); strep tag (C); host or cells: E. coli
Settings: SPR, pirin on CM7 chip, PBS with 2% DMSO and 0.05% tween 20
Description: A control chip was also prepared under identical condition but without including pirin in the reaction. […] A series of increasing concentrations of compound, either the control ThPA or a compound of the present invention is then applied to the pirin modified CM7 chip in phosphate buffered saline containing 2% DMSO and 0.05% tween 20 and sensorgrams are recorded covering the association, equilibrium and dissociation phases of the response.

| Kd [µM] | Compound |
| --- | --- |
| 1.6 | Cc1cccc2c(CC(=O)Nc3ncc(C(F)(F)F)s3)coc12 [Example 72, 2-(7-Methylbenzofuran-3-yl)-N-[5-(trifluoromethyl)thiazol-2-yl]acetamide] |

Target: T1, pirin
Test: Nano differential scanning fluorimetry (NanoDSF), thermal melting of pirin
Settings: 10 μM pirin in PBS, 20 μM test compound
Source text: NanoDSF is an advanced Differential Scanning Fluorimetry method for measuring protein stability using intrinsic tryptophan or tyrosine fluorescence. The fluorescence of the tryptophans and tyrosines in a protein is strongly dependent on their close surroundings. Changes in protein structure typically affect both the intensity and the emission wavelength especially of tryptophan fluorescence. By measuring fluorescence intensity at 330 nm and 350 nm, the change in fluorescence intensity and the shift of the fluorescence maximum upon unfolding can be used to detect thermal melting of the protein. Proteins are stabilized when associated with ligands and show a shift in their melting temperatures. NanoDSF has the advantages of being label free and observing the protein in solution.
A 10 μM solution of pirin in phosphate buffered saline, with or without 20 μM test compound, is subject to thermal denaturation under fluorescence monitoring using a Prometheus NT.48 instrument of NanoTemper Technologies. Unliganded pirin has a complex biphasic melting curve. […] If the test compound is a ligand to pirin, it adopts a single thermal transition some 10° C. above that of apopirin.

| Compound | increase in the Tm of melting |
| --- | --- |
| Cc1cc2occ(CC(=O)Nc3nc(-c4ccc(CN)cc4)cs3)c2cc1C [Example 101, N-[4-[4-(Aminomethyl)phenyl]thiazol-2-yl]-2-(5,6-dimethylbenzofuran-3-yl)acetamide, hydrochloride salt] | approximately 11 °C |
